The target of test [1] is T1, Beta-secretase 1 (Homo sapiens, UniProt P56817). Briefly: Inhibition of recombinant BACE1 (unknown origin) using H-Ile-Lys-Thr-Glu-Glu-Ile-Ser-Glu-Val-Asn-Leu-Asp-Ala-Glu-Phe-Arg-His-Asp-Ser-Gly-NH2 peptide as substrate measured after 90 mins by analytical HPLC analysis.
Test [2] has as its target T1, Beta-secretase 1. Briefly: Inhibition of recombinant BACE1 (unknown origin) at 1500 uM using H-Ile-Lys-Thr-Glu-Glu-Ile-Ser-Glu-Val-Asn-Leu-Asp-Ala-Glu-Phe-Arg-His-Asp-Ser-Gly-NH2 peptide as substrate measured after 90 mins by analytical HPLC analysis relative to control.

Some results are limits rather than exact numbers.

T1 sequence (P56817 whole entry): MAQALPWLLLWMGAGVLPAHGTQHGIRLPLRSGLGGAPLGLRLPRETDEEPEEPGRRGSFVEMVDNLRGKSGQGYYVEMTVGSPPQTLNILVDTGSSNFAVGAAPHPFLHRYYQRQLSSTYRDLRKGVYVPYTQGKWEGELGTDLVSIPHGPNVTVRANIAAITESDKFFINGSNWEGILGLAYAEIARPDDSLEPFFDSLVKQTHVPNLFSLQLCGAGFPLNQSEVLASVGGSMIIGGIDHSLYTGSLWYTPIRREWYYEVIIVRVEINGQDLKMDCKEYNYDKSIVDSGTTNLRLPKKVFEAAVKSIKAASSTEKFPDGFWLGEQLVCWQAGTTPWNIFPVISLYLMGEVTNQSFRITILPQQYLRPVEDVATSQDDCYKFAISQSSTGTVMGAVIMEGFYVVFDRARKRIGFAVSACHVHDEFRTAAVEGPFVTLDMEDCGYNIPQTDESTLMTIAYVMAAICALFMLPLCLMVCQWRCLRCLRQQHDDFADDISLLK

The term IC50 denotes the midpoint of a concentration-inhibition curve. For the molecule `CCC[C@@H]1NC(=O)[C@@H](NC(=O)[C@@H](N)CCC(=O)O)[C@@H](C)OCCCC[C@@H]([C@H](O)CNc2ccc(C)cc2)NC1=O`, the IC50 on Beta-secretase 1 [1] amounted to 1000 µM.

For `CCC[C@@H]1NC(=O)[C@@H](NC(=O)[C@@H](N)CCC(=O)O)[C@H](C)OC/C=C\C[C@@H]([C@H](O)CNc2ccc(C)cc2)NC1=O`, at Beta-secretase 1 [1], the IC50 turned out to be 11.7 µM.

On to `CCC[C@@H]1NC(=O)[C@@H](NC(=O)[C@@H](N)CCC(=O)O)[C@H](C)OCCCC[C@@H]([C@H](O)CNc2ccc(C)cc2)NC1=O`, for which the half-maximal inhibitory concentration (IC50) at Beta-secretase 1 [1] was 135 µM.

What is called inhibition is the change of the read-out against control, counted positive when it falls. On to `CCC[C@@H]1NC(=O)[C@@H](NC(=O)[C@@H](N)CCC(=O)O)C/C=C/CC[C@@H]([C@H](O)CNc2ccc(C)cc2)NC1=O`, for which the half-maximal inhibitory concentration (IC50) at Beta-secretase 1 [1] is greater than 1500 µM. Moreover, at Beta-secretase 1 [2], the inhibition came out at 20%.

On to `CCC[C@@H]1NC(=O)[C@@H](NC(=O)[C@@H](N)CCC(=O)O)CC/C=C\CC[C@@H]([C@H](O)CNc2ccc(C)cc2)NC1=O`, for which the IC50 on Beta-secretase 1 [1] turned out to be 1410 µM.

Turning to `CCC[C@@H]1NC(=O)[C@@H](NC(=O)[C@@H](N)CCC(=O)O)C(C)(C)OCCCC[C@@H]([C@H](O)CNc2ccc(CC(=O)O)cc2)NC1=O`, the IC50 on Beta-secretase 1 [1] worked out at 1.6 µM.

As to `CCC[C@@H]1NC(=O)[C@@H](NC(=O)[C@@H](N)CCC(=O)O)CC/C=C/CC[C@@H]([C@H](O)CNc2ccc(C)cc2)NC1=O`, the IC50 at Beta-secretase 1 [1] was 380 µM.

In the case of `CCC[C@@H]1NC(=O)[C@@H](NC(=O)[C@@H](N)CCC(=O)O)[C@H](C)OC/C=C/C[C@@H]([C@H](O)CNc2ccc(C)cc2)NC1=O`, the IC50 on Beta-secretase 1 [1] stood at 1000 µM.

Consider `CCC[C@@H]1NC(=O)[C@@H](NC(=O)[C@@H](N)CCC(=O)O)CCCCCC[C@@H]([C@H](O)CNc2ccc(C)cc2)NC1=O`, for which the IC50 at Beta-secretase 1 [1] is 780 µM.

`CCC[C@@H]1NC(=O)[C@@H](NC(=O)[C@@H](N)CCC(=O)O)CCCCC[C@@H]([C@H](O)CNc2ccc(C)cc2)NC1=O`: on Beta-secretase 1 [1], the IC50 was determined as 1400 µM.

With `CCC[C@@H]1NC(=O)[C@@H](NC(=O)[C@@H](N)CCC(=O)O)COC/C=C\CC[C@@H]([C@H](O)CNc2ccc(C)cc2)NC1=O`, the IC50 at Beta-secretase 1 [1] was greater than 1500 µM. The inhibition at Beta-secretase 1 [2] was 20%.

In the case of `CCC[C@@H]1NC(=O)[C@@H](NC(=O)[C@@H](N)CCC(=O)O)COCCCCC[C@@H]([C@H](O)CNc2ccc(C)cc2)NC1=O`, at Beta-secretase 1 [1], the half-maximal inhibitory concentration (IC50) is greater than 1500 µM. Besides, the inhibition on Beta-secretase 1 [2] is 20%.

Take `CCC[C@H](NC(=O)[C@@H](NC(=O)[C@@H](N)CCC(=O)O)[C@@H](C)CC)C(=O)N[C@@H](CC(C)C)[C@H](O)CNc1ccc(C)cc1`: on Beta-secretase 1 [1], the concentration for half-maximal inhibition (IC50) is 6.1 µM.

`CCC[C@@H]1NC(=O)[C@@H](NC(=O)[C@@H](N)CCC(=O)O)C/C=C\CC[C@@H]([C@H](O)CNc2ccc(C)cc2)NC1=O`: on Beta-secretase 1 [1], the concentration for half-maximal inhibition (IC50) stood at 1050 µM.

With `CCC[C@@H]1NC(=O)[C@@H](NC(=O)[C@@H](N)CCC(=O)O)COC/C=C/CC[C@@H]([C@H](O)CNc2ccc(C)cc2)NC1=O`, at Beta-secretase 1 [1], the IC50 was greater than 1500 µM. The inhibition on Beta-secretase 1 [2] was found to be 20%.

As to `CCC[C@@H]1NC(=O)[C@@H](NC(=O)[C@@H](N)CCC(=O)O)[C@@H](C)OC/C=C\C[C@@H]([C@H](O)CNc2ccc(C)cc2)NC1=O`, at Beta-secretase 1 [1], the IC50 was determined as 117 µM.

As to `CCC[C@@H]1NC(=O)[C@@H](NC(=O)[C@@H](N)CCC(=O)O)[C@@H](C)OC/C=C/C[C@@H]([C@H](O)CNc2ccc(C)cc2)NC1=O`, the IC50 on Beta-secretase 1 [1] is 1420 µM.

Regarding `CCC[C@@H]1NC(=O)[C@@H](NC(=O)[C@@H](N)CCC(=O)O)C(C)(C)OC/C=C\C[C@@H]([C@H](O)CNc2ccc(C)cc2)NC1=O`, on Beta-secretase 1 [1], the IC50 was 3.9 µM.

Take `CCC[C@@H]1NC(=O)[C@@H](NC(=O)[C@@H](N)CCC(=O)O)C(C)(C)OC/C=C\C[C@@H]([C@H](O)CNc2ccc(CC(=O)O)cc2)NC1=O`: the IC50 on Beta-secretase 1 [1] is 1.2 µM.

As to `CCC[C@@H]1NC(=O)[C@@H](NC(=O)[C@@H](N)CCC(=O)O)C(C)(C)OCCCC[C@@H]([C@H](O)CNc2ccc(C)cc2)NC1=O`, the concentration for half-maximal inhibition (IC50) on Beta-secretase 1 [1] is 6.1 µM.

For the origin of these results see ChEMBL document CHEMBL5053543, “Macrocyclic BACE1 inhibitors with hydrophobic cross-linked structures: Optimization of ring size and ring structure” (Bioorg Med Chem, 2021).
